Usually IC50 stands for the concentration at which inhibition is half-maximal. The term IC90 denotes the point of the concentration-response curve where the effect stands at 90%.

For the experiment, the system named is Plasmodium berghei. Nature of the experiment: Luciferase/luciferin-expressing antifolate-resistant parasites were used to infect a culture of HepG2 cells that were pre-incubated with compounds. Infected hepatocytes emit light due to the luciferase reaction. Assay results are presented as the percent inhibition of light emission compared to control. […]. It is filed as functional. Conditions: sporozoite; for IC90: read-out: LUCIFERASE INFECTION ASSAY - IC90.

The mark [1] stands for this setting: read-out: LUCIFERASE INFECTION ASSAY - IC50.

In the case of `CN1CCc2nc(NC(=O)C3CCN(c4ncc(C(F)(F)F)cc4Cl)CC3)sc2C1`, the IC90 is greater than 10 µM. For the same compound, the IC50 under setting [1] was greater than 10 µM.

Regarding `CC1Cc2cc(C3=NNC(=NC4CC4)SC3)ccc2N1S(C)(=O)=O` (stereo unspecified), the IC90 was 1.38 µM. The IC50 (FFLUC_HILL_SLOPE 2.25, FFLUC_R_SQUARED 0.383, HEPG2TOX_HILL_SLOPE 1.12, HEPG2TOX_R_SQUARED 0.483, PBLUC_HILL_SLOPE 1.74, PBLUC_R_SQUARED 0.672, read-out: LUCIFERASE INFECTION ASSAY - IC50) was found to be 0.197 µM.

For the compound `CC1Cc2ccccc2N1C(=O)c1cn(-c2ccccc2)nc1-c1ccc(F)cc1` (stereo unspecified), the IC90 was 9.94 µM. Besides, under “HEPG2TOX_HILL_SLOPE 8.75, HEPG2TOX_R_SQUARED 0.907, PBLUC_HILL_SLOPE 3.93, PBLUC_R_SQUARED 0.478, read-out: LUCIFERASE INFECTION ASSAY - IC50”, the IC50 was 5.68 µM.

Turning to `CC(C)CC(N)c1csc(NC(=O)NC(c2ccccc2)c2ccccc2)n1` (stereo unspecified), the IC90 is 3.63 µM. The IC50 under setting [1] came out at 2.93 µM.

In the case of `CN(C)Cc1ccccc1CNC(=O)Nc1ccc(Cl)c(Cl)c1`, the IC90 is greater than 2 µM. Also, for the setting “PBLUC_HILL_SLOPE 1.7, PBLUC_R_SQUARED 0.0619, read-out: LUCIFERASE INFECTION ASSAY - IC50”, the IC50 was found to be 0.986 µM.

As to `COCCN(Cc1nc(=O)c2ccccc2[nH]1)C(=O)c1cc(C(C)(C)C)cc(C(C)(C)C)c1O`, the IC90 was greater than 10 µM. Under setting [1], the IC50 was greater than 10 µM.

Take `COc1cc2c(cc1OC)C(c1cccs1)N(CC(=O)Nc1cc([N+](=O)[O-])ccc1C)CC2` (stereo unspecified): the IC90 is 2.62 µM. Further, for the setting “FFLUC_HILL_SLOPE 11.9, FFLUC_R_SQUARED 0.176, HEPG2TOX_HILL_SLOPE 0.633, HEPG2TOX_R_SQUARED 0.848, PBLUC_HILL_SLOPE 2.15, PBLUC_R_SQUARED 0.479, read-out: LUCIFERASE INFECTION ASSAY - IC50”, the IC50 stood at 0.944 µM.

Take `CCCc1cc(=O)n2nc(C)c(-c3ccc(Cl)cc3)c2[nH]1`: the IC90 came out at 4.98 µM. Besides, the half-inhibitory concentration (IC50) (PBLUC_HILL_SLOPE 10.5, PBLUC_R_SQUARED 0.468, read-out: LUCIFERASE INFECTION ASSAY - IC50) amounted to 4.03 µM.

`CS(=O)(=O)c1ccc(-c2cc(C3(CNc4cccc(Cl)c4)CC3)ccn2)cc1`: the IC90 is greater than 10 µM. For the same compound, the concentration for half-maximal inhibition (IC50) under setting [1] was greater than 10 µM.

Regarding `CC1(C)CC(=O)c2cnc(SCC(=O)Nc3ccc(F)cc3F)nc2C1`, the IC90 is greater than 8.74 µM. The IC50 under setting [1] was greater than 8.74 µM.

Turning to `O=c1c2ccccc2sc2nc(-c3ccccc3)n(Cc3ccccc3)c(=O)c12`, the IC90 was greater than 8.32 µM. For the same compound, the IC50 under setting [1] was greater than 8.32 µM.

For the compound `C=CCn1c(O)nnc1Sc1ncc([N+](=O)[O-])s1`, the IC90 was greater than 11.6 µM. Further, under setting [1], the IC50 is greater than 11.6 µM.

As for `COc1ccc(OC)c(S(=O)(=O)N2[C@@H]3CC[C@@H](C3)[C@H]2c2nc3cccc(OCc4ccc(F)cc4)c3[nH]2)c1`, the IC90 was greater than 10 µM. The IC50 under setting [1] is greater than 10 µM.

On to `CCOc1ccc(Nc2nc3cc(S(=O)(=O)N(CC)CC)ccc3o2)cc1`, for which the IC90 is greater than 10 µM. In addition, the IC50 (HEPG2TOX_HILL_SLOPE 0.167, HEPG2TOX_R_SQUARED 0.162, read-out: LUCIFERASE INFECTION ASSAY - IC50) was greater than 10 µM.

On to `CCCCNC(=O)c1c(NC(=O)C(C)Oc2ccccc2)nc2ccc(C)cn12` (stereo unspecified), for which the IC90 was greater than 8.37 µM. The IC50 (HEPG2TOX_HILL_SLOPE 6.71, HEPG2TOX_R_SQUARED 0.423, PBLUC_HILL_SLOPE 12, PBLUC_R_SQUARED 0.638, read-out: LUCIFERASE INFECTION ASSAY - IC50) was found to be 7.31 µM.

`OC(c1cc(F)c(F)c(F)c1)c1nnc(Nc2cc(C(F)(F)F)ccc2F)s1` (stereo unspecified): the 90% effect concentration (IC90) amounted to 7.5 µM. For the setting “PBLUC_HILL_SLOPE 4.45, PBLUC_R_SQUARED 0.324, read-out: LUCIFERASE INFECTION ASSAY - IC50”, the half-maximal inhibitory concentration (IC50) is 4.58 µM.

For `CCOc1ccc(S(=O)(=O)N2c3ccccc3C(C(N)=O)CC2C)cc1OCC` (stereo unspecified), the IC90 was greater than 10 µM. Besides, under setting [1], the IC50 was greater than 10 µM.

As for `Cc1ccc(COC(=O)c2ccccc2S(=O)(=O)N2CCCCC2)cc1`, the IC90 was greater than 10 µM. Under setting [1], the IC50 was 9.7 µM.

With `O=C(NC1CCCCC1)N1CCc2nc(NCc3cccc(Oc4ccccc4)c3)ncc2C1`, the IC90 was greater than 7.21 µM. Further, the IC50 (HEPG2TOX_HILL_SLOPE 12.4, HEPG2TOX_R_SQUARED 0.711, PBLUC_HILL_SLOPE 13.6, PBLUC_R_SQUARED 0.535, read-out: LUCIFERASE INFECTION ASSAY - IC50) was 6.74 µM.

`CCOc1ccc(-c2nc(CSc3nnc(-c4ccccc4OC)n3CC)cs2)cc1`: the IC90 is greater than 10 µM. Moreover, the IC50 (HEPG2TOX_HILL_SLOPE 10.1, HEPG2TOX_R_SQUARED 0.28, PBLUC_HILL_SLOPE 16.2, PBLUC_R_SQUARED 0.242, read-out: LUCIFERASE INFECTION ASSAY - IC50) was 9.09 µM.

For the compound `CCN(CC)c1ccc(NC(=O)CCc2ccccc2)cc1C`, the IC90 worked out at 6.81 µM. Also, for the setting “HEPG2TOX_HILL_SLOPE 3.47, HEPG2TOX_R_SQUARED 0.947, PBLUC_HILL_SLOPE 2.46, PBLUC_R_SQUARED 0.836, read-out: LUCIFERASE INFECTION ASSAY - IC50”, the IC50 stood at 2.79 µM.

`O=C(NC1CC1)c1ccc(-c2cnc3cnc(-c4cnn(Cc5ccccc5)c4)cn23)cc1`: the IC90 is greater than 7.59 µM. The IC50 (PBLUC_HILL_SLOPE 12.1, PBLUC_R_SQUARED 0.417, read-out: LUCIFERASE INFECTION ASSAY - IC50) was determined as 6.99 µM.

On to `CC(C)CNC(=O)CN1CCN(c2nc(-c3cccs3)nc3sc4c(c23)CCC4)CC1`, for which the IC90 was found to be 3.94 µM. The IC50 under setting [1] turned out to be 3.4 µM.

`Cc1[nH]c2ccccc2c1C(=O)C(C)Sc1ccc2c(c1)OCCCO2` (stereo unspecified): the IC90 is greater than 10 µM. Moreover, the IC50 (PBLUC_HILL_SLOPE 1.73, PBLUC_R_SQUARED 0.284, read-out: LUCIFERASE INFECTION ASSAY - IC50) was 3.18 µM.

Consider `Cc1cccn2c(=O)c(/C=N/O)c(Nc3ccc(SC(F)F)cc3)nc12`, for which the IC90 is greater than 10 µM. The IC50 under setting [1] is greater than 10 µM.

As for `CCCCC1(c2ccccc2)NC(=O)N(CC(=O)Nc2ccc(C#N)c(Cl)c2)C1=O` (stereo unspecified), the IC90 is greater than 10 µM. The concentration for half-maximal inhibition (IC50) under setting [1] is greater than 10 µM.

Regarding `Oc1cccc(-c2cnc3cnc(-c4cc5ccccc5s4)cn23)c1`, the concentration for an effect of 90% (IC90) is 8.34 µM. Further, under “HEPG2TOX_HILL_SLOPE 18.8, HEPG2TOX_R_SQUARED 0.771, PBLUC_HILL_SLOPE 3.35, PBLUC_R_SQUARED 0.418, read-out: LUCIFERASE INFECTION ASSAY - IC50”, the IC50 stood at 4.33 µM.

With `CCN1C(=O)N(CCCc2cccnc2)C(=O)C12CCN(Cc1cccc(C(F)(F)F)c1)CC2`, the IC90 is greater than 6.95 µM. The IC50 (HEPG2TOX_HILL_SLOPE 2.53, HEPG2TOX_R_SQUARED 0.847, PBLUC_HILL_SLOPE 12.5, PBLUC_R_SQUARED 0.0898, read-out: LUCIFERASE INFECTION ASSAY - IC50) was determined as 6.59 µM.

On to `CC(C)c1ccc(NC(=O)CSc2nccc(-c3csc(COc4ccccc4Cl)n3)n2)cc1`, for which the IC90 was greater than 6.46 µM. In addition, the IC50 under setting [1] was greater than 6.46 µM.

With `COc1cc(/C=C/C(=O)c2cccc(Cl)c2)cc(Br)c1OCC(=O)N(C)C`, the IC90 amounted to 4.57 µM. Further, the IC50 (HEPG2TOX_HILL_SLOPE 4.93, 12.4, HEPG2TOX_R_SQUARED 0.976, 0.384, PBLUC_HILL_SLOPE 9.73, 46.2, PBLUC_R_SQUARED 0.151, 0.563, read-out: LUCIFERASE INFECTION ASSAY - IC50) is 3.93 µM.

Consider `CCN(c1ccc(NC(=O)CCc2ccccc2Cl)cc1)C(C)C`, for which the IC90 was greater than 10 µM. For the same compound, where the note is “HEPG2TOX_HILL_SLOPE 1.73, HEPG2TOX_R_SQUARED 0.92, read-out: LUCIFERASE INFECTION ASSAY - IC50”, the IC50 is greater than 10 µM.

Turning to `CC(Sc1nc(=O)c2c3c(sc2[nH]1)CCCC3)C(=O)Nc1ccc2ccccc2c1` (stereo unspecified), the IC90 was greater than 10 µM. In addition, the IC50 (HEPG2TOX_HILL_SLOPE 0.165, HEPG2TOX_R_SQUARED 0.248, read-out: LUCIFERASE INFECTION ASSAY - IC50) is greater than 10 µM.

For `CC1CCN(C(=O)COc2ccc(C(C)C)cc2Br)CC1`, the IC90 came out at 8.51 µM. Moreover, where the note is “HEPG2TOX_HILL_SLOPE 9.85, HEPG2TOX_R_SQUARED 0.75, PBLUC_HILL_SLOPE 15.1, PBLUC_R_SQUARED 0.202, read-out: LUCIFERASE INFECTION ASSAY - IC50”, the IC50 worked out at 7.36 µM.

In the case of `Cc1nn2c(=O)c(Cc3ccccc3Cl)c(C)[nH]c2c1-c1ccccc1`, the IC90 was 2.97 µM. Besides, the IC50 under setting [1] turned out to be 2.68 µM.

On to `CCOc1ccccc1NC(=O)C(NCc1ccc(OC(F)F)cc1)c1ccccc1` (stereo unspecified), for which the IC90 was 4.47 µM. Further, the IC50 (HEPG2TOX_HILL_SLOPE 2.27, HEPG2TOX_R_SQUARED 0.924, PBLUC_HILL_SLOPE 9.94, PBLUC_R_SQUARED 0.658, read-out: LUCIFERASE INFECTION ASSAY - IC50) is 3.59 µM.

On to `c1ccc(-c2cc3c(SCc4cscn4)ncnc3s2)cc1`, for which the IC90 stood at 3.71 µM. For the same compound, the IC50 (PBLUC_HILL_SLOPE 12.2, PBLUC_R_SQUARED 0.61, read-out: LUCIFERASE INFECTION ASSAY - IC50) stood at 3.1 µM.

As for `COc1ccc2nc(C)cc(NCc3cccc(C(F)(F)F)c3)c2c1`, the IC90 worked out at 3.24 µM. In addition, for the setting “PBLUC_HILL_SLOPE 17.2, PBLUC_R_SQUARED 0.454, read-out: LUCIFERASE INFECTION ASSAY - IC50”, the IC50 worked out at 2.85 µM.

`O=C(NCc1ccc(N2CCCC2=O)cc1)c1cccnc1OCC(F)(F)F`: the IC90 was 4.11 µM. Besides, the 50% inhibitory concentration (IC50) (HEPG2TOX_HILL_SLOPE 1.59, HEPG2TOX_R_SQUARED 0.969, PBLUC_HILL_SLOPE 1.45, PBLUC_R_SQUARED 0.646, read-out: LUCIFERASE INFECTION ASSAY - IC50) worked out at 0.899 µM.

These data come from ChEMBL document CHEMBL4483862, “Open-source discovery of chemical leads for next-generation chemoprotective antimalarials” (2018).
